Laboratory results reported in paper PMC4197335, “Cancer-Selective Targeting of the NF-κB Survival Pathway with GADD45β/MKK7 Inhibitors” (Cancer Cell, 2014).
Like-named read-outs stand apart in the source and are kept apart here.

Assays:
microsomal stability = format: in vitro ADME, human
Text: (§1) Pharmacophore Model Building
(§2) The pharmacophore predictive
(§3) Broad- Panel Kinase Profiling
(§4) according to in-house protocols therein.
(§5) Pharmacokinetic Anal yses
(§6) In vitro pharmacok inetic assays were […]

plasma protein binding = format: in vitro ADME; conditions: read-out: PPB (fraction unbound)
Text: as §1, §2, §3, §4, §5, §6

GADD45β/MKK7 complex = target: T1, GADD45β/MKK7 complex (Homo sapiens, UniProt O14733); experiment: ELISA GADD45β/MKK7 competition assay; format: binding
T1 construct: Full-length human (h)MKK7 was expressed as a protein fused to an N-terminal GST tag (GST-MKK7); made in house
T1 sequence (O14733 1-419): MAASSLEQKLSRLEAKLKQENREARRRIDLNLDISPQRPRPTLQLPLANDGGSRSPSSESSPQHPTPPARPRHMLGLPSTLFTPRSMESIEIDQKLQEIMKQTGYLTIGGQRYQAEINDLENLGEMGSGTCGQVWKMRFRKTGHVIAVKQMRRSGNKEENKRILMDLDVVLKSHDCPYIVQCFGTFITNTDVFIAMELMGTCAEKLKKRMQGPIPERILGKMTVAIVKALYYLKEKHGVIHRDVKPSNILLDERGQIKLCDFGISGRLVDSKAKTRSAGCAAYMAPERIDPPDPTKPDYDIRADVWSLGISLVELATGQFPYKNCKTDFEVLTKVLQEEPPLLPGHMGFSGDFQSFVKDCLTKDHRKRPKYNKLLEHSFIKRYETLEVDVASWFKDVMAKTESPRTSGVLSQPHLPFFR
Text: Additional details are provided in Supplemental Experimental Procedures.
(1:1,000) and the HRP chromogenic substrate, o -phenylenediamine (OPD). GST -coated wells wer e […]
The ELISA competition screen used f or the isolation of antagonists of the GADD45β /MKK7 […]
The library deconvolution strategy used for this screen was described previously […]
General information about this type of screens can be found elsewhere […]
Values were expressed as the percentage of inhibition of His6-hGADD45β binding to GST-hMKK7 relative to the binding measured in the absence of […]
Dose-response, ELISA GADD45β /MKK7 competition assays were carried out under similar […]
As part of the SAR analysis and lead optimization process, where appropriate, competitors were tested at a concentration up to 100 nM. In order to determine their stability in biolog ical f luids , peptides were incubated at the concentration of 10 µM in […]
calculated using at least 7 concentrations of peptide and def ined as the mean concentration of peptide […]
the absence of competitor. W here indicated, values were expressed as the percentage of inhibition of His 6 -hGADD45β binding to GST-hMKK7 relative to the binding measured in the absence of competitor.
GST was used as a control in all the experiments. […]
tetrapeptide used as negative control in some of the ELISA and cellular assays was as f ollows: z -DNC, z-T yr -Asp-His-Gln-NH 2 . […]

GST-hMKK7 = target: T2, GST-hMKK7 (Homo sapiens, UniProt O14733); experiment: tryptophan fluorescence quenching analysis; format: binding; conditions: DTP3/MKK7 interaction
T2 construct: Full-length human (h)MKK7 was expressed as a protein fused to an N-terminal GST tag (GST-MKK7); made in house
T2 sequence (O14733 1-419): T1 sequence (O14733 1-419)
Method: The stoichiometry and KD value of the DTP3/MKK7 interaction were determined by tryptophan fluorescence quenching analysis, after fitting the fluorescence data with a nonlinear regression algorithm, as described by [Williamson (2013)]. Additional details are provided in Supplemental Experimental Procedures, along with a description of the methods used for CD and MALDI-TOF mass spectrometry analyses and the pull-down of MKK7 from cells with DTP3.
Spectrofluorimetric Analyses
The stoichiometry of the interaction of DTP3 with MKK7 was determined by using tryptophan f luorescence quenching analysis. Spectra were acquired with a Cary Eclipse Spectrof luorimeter analyzer (Varian Inc.), equipped with Peltier thermostating system, and a 1- cm quartz cuvette. The analyses were carried out using 1. 25 μM of GST -hMKK7 or GST dissolved in 10 mM of phosphate buff er, pH 7.5, and increasing concentrations of DTP3 or control SCRB D-peptide dissolved in the same buffer. […] The fluorescence values recorded at 333 nm were extracted, transformed to -ΔFluorescence and, then, plotted against the peptide concentration.
Fluorescence data were f itted using a single- site binding model (equation 1): […]
binding, was a highly appropriate model to account for the measured f lorescence trends, resulting in a R square (R2) of 0.985 and a chi square (X2) of 1.436. […]

CC(=O)N[C@H](Cc1ccc(O)cc1)C(=O)N[C@H](CCCNC(=N)N)C(=O)N[C@H](Cc1ccccc1)C(N)=O [DTP3, Ac-YRF-NH2]
microsomal stability (human) (microsomal stability): 4.87 ± 1.24 µL/min/mg protein
half-life (microsomal stability; human, microsomes, read-out: microsomal stability (human) t½): 4.75 h
fraction unbound (plasma protein binding; human): 0.933 ± 0.004
fraction unbound (plasma protein binding; mouse): 0.42 ± 0.01
IC50 (GADD45β/MKK7 complex; Table S4, read-out: IC50s (ELISA)): 0.16 nM
inhibition at 0.042 µM (GADD45β/MKK7 complex; read-out: % inhibition of (ELISA)): 94%
Kd (GST-hMKK7): 64.8 ± 6.22 nM
